ChEMBL document CHEMBL4480424, “Bialternacins A-F, Aromatic Polyketide Dimers from an Endophytic Alternaria sp” (J Nat Prod, 2019)
pIC50: −log10 of the molar value. Calls of active or inactive are those of the source. The calls are words filed in the database; no cut-off is given here.

target: Acetylcholinesterase (Homo sapiens, UniProt P22303); assay: Inhibition of AChE (unknown origin) using acetylthiocholine iodide as substrate after 5 mins by spectrophotometric analysis
Sequence (P22303 whole entry): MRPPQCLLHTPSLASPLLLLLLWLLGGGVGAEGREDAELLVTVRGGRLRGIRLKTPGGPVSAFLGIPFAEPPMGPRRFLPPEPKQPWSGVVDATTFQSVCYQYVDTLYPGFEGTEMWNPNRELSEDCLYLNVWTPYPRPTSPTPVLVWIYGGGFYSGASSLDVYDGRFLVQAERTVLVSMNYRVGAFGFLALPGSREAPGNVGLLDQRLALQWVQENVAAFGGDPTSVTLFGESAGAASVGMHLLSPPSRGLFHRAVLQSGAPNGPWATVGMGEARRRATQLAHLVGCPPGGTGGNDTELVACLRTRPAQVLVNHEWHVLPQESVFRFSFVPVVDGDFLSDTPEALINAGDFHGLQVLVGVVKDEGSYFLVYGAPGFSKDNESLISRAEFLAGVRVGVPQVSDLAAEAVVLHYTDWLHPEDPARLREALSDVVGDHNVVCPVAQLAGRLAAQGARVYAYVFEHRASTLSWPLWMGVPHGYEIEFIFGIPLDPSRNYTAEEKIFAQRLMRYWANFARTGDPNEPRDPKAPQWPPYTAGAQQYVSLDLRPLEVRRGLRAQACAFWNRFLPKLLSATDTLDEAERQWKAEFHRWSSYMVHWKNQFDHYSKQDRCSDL

Row | SMILES | inhibition | pIC50
1 | COc1cc(O)c2c(c1)C1=CC3=Nc4cc(C)c(-c5cc(OC)cc(O)c5C(=O)O)cc4O[C@@]3(O)C[C@@]1(C)OC2=O | inactive | 
2 | COc1cc(O)c(C(=O)O)c(-c2c(C)cc(O)c3oc4c(c23)C2(OC(=O)c3c(O)cc(OC)cc32)C(C)=CC4=O)c1 (stereo in doubt; (+)-2) | inactive | 
3 | COc1cc(O)c2c(c1)C1=C(C3=C4c5cc(OC)cc(O)c5C(=O)OC4(C)C=C(O)C3=O)C(=O)C(O)=CC1(C)OC2=O (stereo in doubt; (-)-6) | inactive | 
4 | COc1cc(O)c(C(C)=O)c(-c2c(C)cc(O)c3oc4c(O)cc(C)c(-c5cc(OC)cc(O)c5C(=O)O)c4c23)c1 |  | 4.17
5 | COc1cc(O)c2c(c1)C1=C(c3c(O)c(O)cc(C)c3-c3cc(OC)cc(O)c3C(=O)O)C(=O)C(O)=CC1(C)OC2=O (stereo not given) | inactive | 4.81
6 | COc1cc(O)c(C(=O)O)c(-c2c(C)cc(O)c3oc4c(c23)C2(OC(=O)c3c(O)cc(OC)cc32)C(C)=CC4=O)c1 (stereo in doubt; (-)-2) | inactive | 
7 | COc1cc(O)c(C(=O)O)c(-c2c(C)cc(O)c(O)c2-c2c(O)c(O)cc(C)c2-c2cc(OC)cc(O)c2C(=O)O)c1 | inactive | 
8 | COc1cc(O)c2c(c1)C1=CC3=Nc4cc(C)c(-c5cc(OC)cc(O)c5C(=O)O)cc4O[C@]3(O)C[C@]1(C)OC2=O | inactive | 
9 | COc1cc(O)c2c(c1)C1=C(C3=C4c5cc(OC)cc(O)c5C(=O)OC4(C)C=C(O)C3=O)C(=O)C(O)=CC1(C)OC2=O (stereo in doubt; (+)-6) | inactive | 
